These results are taken from article PMC4228444 (BMC Complementary and Alternative Medicine, 2013).

“And” between values parts separate entries of the source, which are not always exact repeats. Equal entries are not always repeated.

Data set [1] relates to Propionibacterium acnes (ATCC 11827). As to the kind of experiment: Antibacterial activity, broth microdilution MIC (INT colour change). In kind it is cell-based. As to conditions: P. acnes, 72 h anaerobic, 37°C. How it is done:
The ethanol extract and compounds were tested against P. acnes by determining the minimum inhibitory concentration (MIC) values obtained by a microdilution method as previously described with few modifications. Briefly, the bacteria was cultured from a Kwik-Stick on nutrient agar and incubated at 37°C for 72 h under anaerobic conditions before the assay. The 72 h culture of the bacteria was dissolved in nutrient broth and the suspension was adjusted to 0.5 McFarland standard turbidity. […] In a sterile 96-well plate, 100 μl of samples from the stock solution consisting of the plant extract/isolated compounds (2 mg/ml in 10% dimethyl sulphoxide (DMSO)) and the positive control tetracycline (0.2 mg/ml) were diluted with broth. Twofold serial dilutions were made in broth over a range to give concentrations of 500–3.9 μg/ml and 50–0.3 and μg/ml for the plant extract/ isolated compounds and positive control tetracycline, respectively. The bacterial suspension (100 μl) was then added to the wells. The wells with 2.5% DMSO and bacterial suspension without samples served as the solvent and negative controls, respectively. The plates were incubated at 37°C for 72 h in an anaerobic environment.
(In general: In broth dilution the organism is exposed to a series of concentrations in liquid medium.)

The nature of the next data set: DPPH antioxidant assay. Type of data set: biochemical. On the procedure: Antioxidant activity of the ethanol extract of S. jambos and compounds was investigated using 1,2-diphenyl-1-picrylhydrazyl (DPPH) antioxidant assay. Following the procedures as described by DuToit et al. for each sample, a dilution series (8 dilutions) was prepared in a 96 well plate by adding distilled water as a dilution medium. Final concentration of the samples ranged from 100 to 0.7 μg/ml. Each concentration was tested in triplicate. Vitamin C was used as a positive control. […] The radical scavenging activity was measured in terms of the amount of antioxidants necessary to decrease the initial DPPH absorbance by 50% (IC50). The IC50 value of each sample was determined graphically by plotting the absorbance of DPPH as a function of the sample concentration in μg/ml. The IC50 is the amount of antioxidant necessary to decrease the initial DPPH absorbance by 50%. The results are expressed as the mg vitamin C equivalents/g dry weight and calculated as follows: […]
A general note: Loss of DPPH colour is used to gauge radical scavenging.

Data set [2] can be described thus: In vitro cytotoxicity assay (XTT), B16-F10. The following applies: mouse, B16-F10 mouse melanocyte cells. On the procedure:
(§1) The mouse melanocytes (B16-F10) cells were cultured in a complete Minimum Essential Eagle’s Medium (MEM) whereas the human U937 cells were cultured in Roswell Park Memorial Institute (RPMI) containing 10% fetal bovine serum (FBS) and 1% gentamycin. B16-F10 (10^5 cells per well) and U937 (10^6 cells per well) were seeded into a 96-well plate. After an overnight incubation at 37°C in 5% CO2 and a humidified atmosphere, the extract, compounds and the positive control (actinomycin D) were added to the cells. […] The highest concentration of positive control (0.05 μg/ml) was serially diluted to eight consecutive wells. The plate was then incubated at 37°C in 5% CO2, and a humidified atmosphere after which the toxic effects of the extracts were assayed using the XTT (sodium 3’-[1-(phenyl amino-carbonyl)-3,4-tetrazolium]-bis-[4-methoxy-6-nitrobenzene sulfonic acid hydrate) cytotoxicity assay. […] The optical densities of the wells were measured at 450 nm (690 nm reference wavelength) using BIOTEK Power-wave XS multi well reader (A.D.P., Weltevreden Park, South Africa). By referring to the control (medium with DMSO), the cell survival rate was assessed.
On the technique in general: Tetrazolium assays rely on reduction of a dye to a coloured formazan, in cell work by metabolically active cells.

In data set [3] the test system is B16-F10 mouse melanocytes. As to the kind of experiment: In vitro cytotoxicity assay (XTT), B16-F10. As to conditions: B16-F10 cells. How it is done: as §1
A short description of data set [4]: In vitro cytotoxicity assay (XTT), U937. As to conditions: human, U937 human macrophage cells. How it is done: as §1
In another data set the test system is U937 human macrophage. As to the kind of experiment: In vitro cytotoxicity assay (XTT), U937. The following applies: U937 cells. On the procedure: as §1
The subject of the next data set is IL 8. Kind of data set: IL 8 release from U937 cells stimulated with heat-killed P. acnes (ELISA). In kind it is cell-based, human. As to conditions: for Inhibitory ratio (%) IL 8: 18 h. On the procedure:
(§2) Briefly, the log phase culture of P. acnes was harvested, washed three times with phosphate buffer saline (PBS), and incubated at 80°C for 30 min to kill the bacteria. The heat-killed bacteria were stored at 4°C until use. […] Pentoxifylline was used as a control. […] Cytokine standards were serially diluted to facilitate the construction of calibration curves necessary for determining protein concentration after treatment with test samples. The ratio (%) of inhibition of the cytokine release was calculated using the following equation: […] Where T represents the concentration of the cytokine in the culture supernatant with the test sample, and C represents the concentration of cytokine in the culture supernatant with the solvent.

The next data set concerns TNF α. Kind of data set: TNF α release from U937 cells stimulated with heat-killed P. acnes (ELISA). The following applies: for Inhibitory ratio (%) TNF α: 18 h. In kind it is cell-based, human. How it is done:
as §2

The mark [5] stands for this setting: at the highest concentration tested.

What is called MIC is the lowest concentration that inhibits growth of the organism. A higher MIC goes with a need for much substance. The term IC50 denotes the point on the concentration scale where inhibition reaches its midpoint. A high value points to weaker potency. By EC50 is commonly meant the midpoint of the concentration-response curve. `O=c1c(O)c(-c2cc(O)c(O)c(O)c2)oc2cc(O)cc(O)c12` [Myricetin, myricetin] returned an MIC in data set [1] (Cutibacterium acnes, ATCC11827, 72 h) of more than 500 µg/mL. In data set [1], the “Antibacterial MIC” value was “Na (not active at the highest concentration tested (500 μg/ml))”. Also, the “Antioxidant IC50” value in “DPPH antioxidant assay” (DPPH, 550 nm) was determined as 0.9 µg/mL. Half-maximal inhibition in “DPPH antioxidant assay” (DPPH, value in brackets) (IC50) was put at 3000 nM. In addition, the “Antioxidant Mg Vit C equivalents/g dry weight” value in the data set “DPPH antioxidant assay” (IC50 vit C/IC50 sample × 1000) is 2105.0 Mg Vit C equivalents/g dry weight. Moreover, the EC50 is 11.1 µg/mL and 35.1 µM in data set [2]; 19.3 µg/mL and 60 µM in data set [4]. Also, the Toxicity in words entry in data set [3] is “significant toxicity”; in the data set with U937 human macrophage it was “moderate toxicity”. Besides, the “Inhibition of IL 8 in words” value with IL 8 (setting [5]) is given as “low inhibition”. Besides, the “Inhibitory ratio (%) IL 8” value is given as -0.5% in the data set with IL 8 (final concentration 3.1 μg/ml), 10% in the data set on IL 8 (final concentration 6.2 μg/ml) and 34% with IL 8 (final concentration 12.5 μg/ml). For the same compound, the “Inhibition of TNF α in words” value in the data set with TNF α (setting [5]) was “moderately decreased”. For the same compound, the “Inhibitory ratio (%) TNF α” value in the data set on TNF α (final concentration 3.1 μg/ml) is -4.8%; in the data set with TNF α (final concentration 6.2 μg/ml), 27.1%; in the data set on TNF α (final concentration 12.5 μg/ml) it was 44.1%.
